How the values were obtained:
Format in all cases: cell-based
MDA-MB-231 = test: MTT antiproliferative assay, MDA-MB-231; conditions: Homo sapiens, 72 h, no IC50 calculated when less than 50% inhibition at 10 μM
Text: (§1) The antiproliferative activities of the prepared diterpene analogues were studied using an MTT assay on a panel of human adherent cancer lines, including cells from cervical (HeLa), breast (MDA-MB-231, MCF-7), and ovary cancers (A2780), as given in Figure 1 and Table S1 in the Supplementary Materials. A non-malignant fibroblast cell line (NIH/3T3) was also utilised to obtain preliminary information on the cancer selectivity of the tested compounds. Based on the obtained activities, some conclusions could be drawn regarding the structure–activity relationships (SARs). Since neither the key intermediate benzyl ester of hydroxylaldehyde 4 nor the N-Boc protected aminoalcohols (6, 7, 11, 12) or even compound 8 with a free carboxylic function exerted remarkable antiproliferative effects (except for 12 against A2780 ovarian cancer cells), we could conclude that the simultaneous presence of the ester function and the basic secondary amino function were essential for the inhibition of cell growth. […] All active molecules inhibited considerably the proliferation of non-malignant cells, which meant that most currently presented agents were not optimal for further investigations of their anticancer properties.
(§2) The growth-inhibitory effects of the isosteviol-based 1,3-aminoalcohols were determined by a standard MTT (3-(4,5-dimethylthiazol-2-yl)-2,5-diphenyltetrazolium bromide) assay on a panel containing five cell lines, including Hela (cervical cancer), MDA-MB-231 and MCF-7 (breast cancers), and A2780 ovarian cancer cells. All cell lines were purchased from the European Collection of Cell Cultures (Salisbury, UK). The cells were maintained in a minimal essential medium supplemented with 10% foetal bovine serum, 1% non-essential amino acids, and 1% penicillin–streptomycin at 37 °C in a humidified atmosphere containing 5% CO2. All media and supplements were obtained from Lonza Group Ltd. (Basel, Switzerland). Cancer cells were seeded into 96-well plates (5000 cells/well); after overnight incubation, the test compound was added in two different concentrations (10 µM and 30 µM) and incubated for another 72 h under cell-culturing conditions. In the next step, 20 μL of 5 mg/mL of an MTT solution was added to each well and incubated for a further 4 h. The medium was removed and the precipitated formazan crystals were dissolved in DMSO after 60 min of shaking at 37 °C. As a final step, the absorbance was measured at 545 nm by using a microplate reader. Untreated cells were included as controls. […] Two independent experiments were performed with five wells for each condition. Calculations were performed using the GraphPad Prism 10.0 software (GraphPad Software Inc., San Diego, CA, USA).

A2780 = test: MTT antiproliferative assay, A2780; conditions: Homo sapiens, 72 h, no IC50 calculated when less than 50% inhibition at 10 μM
Text: as §1, §2

HeLa = test: MTT antiproliferative assay, HeLa; conditions: Homo sapiens, 72 h, no IC50 calculated when less than 50% inhibition at 10 μM
Text: as §1, §2

MCF-7 = test: MTT antiproliferative assay, MCF-7; conditions: Homo sapiens, MCF7, 72 h, no IC50 calculated when less than 50% inhibition at 10 μM
Text: as §1, §2

NIH/3T3 = test: MTT assay on non-malignant fibroblasts; conditions: Mus musculus, NIH3T3, 72 h, no IC50 calculated when less than 50% inhibition at 10 μM
Text: as §1, §2

Compound | IC50 (MDA-MB-231) [µM] | IC50 (A2780) [µM] | IC50 (HeLa) [µM] | IC50 (MCF-7) [µM] | IC50 (NIH/3T3) [µM]
C=CC(=O)OCCC(=O)OCCCCOC(=O)[C@]1(C)CCC[C@@]2(C)C3CC[C@@]4(C)C[C@]3(CC[C@H]12)[C@H](CN(Cc1ccc(F)cc1)C(=O)OC(C)(C)C)[C@H]4O (stereo partly drawn) [Compound 12, (4R,4aS,6aS,7R,8R,9S,11bS)-4-((3-(Acryloyloxy)propanoyl)oxy)butyl 7-(((tert-butoxycarbonyl)(4-fluorobenzyl)amino)methyl)-8-hydroxy-4,9,11b-trimethyltetradecahydro-6a,9-methanocyclohepta[a]naphthalene-4-carboxylate] | > 10 | 4.78 | > 10 | > 10 | > 10
C[C@@H](NC[C@@H]1[C@@H](O)[C@@]2(C)CCC3[C@]1(CC[C@@H]1[C@](C)(C(=O)OCc4ccccc4)CCC[C@@]31C)C2)c1cccc2ccccc12 (stereo partly drawn) [Compound 18, (4R,4aS,6aS,7R,8R,9S,11bS)-Benzyl 8-hydroxy-4,9,11b-trimethyl-7-((((R)-1-(naphthalen-1-yl)ethyl)amino)methyl)tetradecahydro-6a,9-methanocyclohepta[a]naphthalene-4-carboxylate] | 4.63 | 2.89 | 3.05 | 4.85 | 4.61
C[C@]12CCC3[C@](CC[C@@H]4[C@](C)(C(=O)OCc5ccccc5)CCC[C@@]34C)(C1)[C@H](CNCc1ccc(F)cc1)[C@H]2O (stereo partly drawn) [Compound 5, (4R,4aS,6aS,7R,8R,9S,11bS)-Benzyl 7-(((4-fluorobenzyl)amino)methyl)-8-hydroxy-4,9,11b-trimethyltetradecahydro-6a,9-methanocyclohepta[a]naphthalene-4-carboxylate] | 5.98 | 4.57 | 4.17 | 4.29 | 4.27
CC12CCC3C(CC[C@@H]4[C@](C)(C(=O)OCc5ccccc5)CCC[C@@]34C)(C1)[C@H](CNCCCn1ccnc1)[C@H]2O (stereo partly drawn) [Compound 20, (4R,4aS,7R,8R,11bS)-Benzyl 7-(((3-(1H-imidazol-1-yl)propyl)amino)methyl)-8-hydroxy-4,9,11b-trimethyltetradecahydro-6a,9-methanocyclohepta[a]naphthalene-4-carboxylate] | 1.78 | 3.74 | 1.99 | 1.37 | 4.78
CC[C@H](NC[C@@H]1[C@@H](O)[C@@]2(C)CCC3[C@]1(CC[C@@H]1[C@](C)(C(=O)OCc4ccccc4)CCC[C@@]31C)C2)c1ccccc1 (stereo partly drawn) [Compound 17, (4R,4aS,6aS,7R,8R,9S,11bS)-Benzyl 8-hydroxy-4,9,11b-trimethyl-7-((((S)-1-phenylpropyl)amino)methyl)tetradecahydro-6a,9-methanocyclohepta[a]naphthalene-4-carboxylate] | 4.04 | 3.78 | 4.45 | 4.74 | 1.95
C[C@]12CCC3[C@](CC[C@@H]4[C@](C)(C(=O)OCc5ccccc5)CCC[C@@]34C)(C1)[C@H](C=O)[C@H]2O (stereo partly drawn) [Compound 4, (4R,4aS,6aS,7S,8R,9S,11bS)-Benzyl 7-formyl-8-hydroxy-4,9,11b-trimethyltetradecahydro-6a,9-methanocyclohepta[a]naphthalene-4-carboxylate] | > 10 | > 10 | > 10 | > 10 | > 10
COC(=O)[C@]1(C)CCC[C@@]2(C)C3CC[C@@]4(C)C[C@]3(CC[C@H]12)[C@H](CN[C@@H](C)c1ccc2ccccc2c1)[C@H]4O (stereo partly drawn) [Compound 26, (4R,4aS,6aS,7R,8R,9S,11bS)-Methyl 8-hydroxy-4,9,11b-trimethyl-7-((((S)-1-(naphthalen-2-yl)ethyl)amino)methyl)tetradecahydro-6a,9-methanocyclohepta[a]naphthalene-4-carboxylate] | 6.07 | 4.11 | 4.33 | 3.67 | 3.12
CC(C)(C)OC(=O)N(Cc1ccc(F)cc1)C[C@@H]1[C@@H](O)[C@@]2(C)CCC3[C@]1(CC[C@@H]1[C@](C)(C(=O)OCc4ccccc4)CCC[C@@]31C)C2 (stereo partly drawn) [Compound 6, (4R,4aS,6aS,7R,8R,9S,11bS)-Benzyl 7-(((tert-butoxycarbonyl)(4-fluorobenzyl)amino)methyl)-8-hydroxy-4,9,11b-trimethyltetradecahydro-6a,9-methanocyclohepta[a]naphthalene-4-carboxylate] | > 10 | > 10 | > 10 | > 10 | > 10
CC(C)(C)OC(=O)N(Cc1ccc(F)cc1)C[C@@H]1[C@@H](O)[C@@]2(C)CCC3[C@]1(CC[C@@H]1[C@](C)(C(=O)O)CCC[C@@]31C)C2 (stereo partly drawn) [Compound 7, (4R,4aS,6aS,7R,8R,9S,11bS)-7-(((tert-butoxycarbonyl)(4-fluorobenzyl)amino)methyl)-8-hydroxy-4,9,11b-trimethyltetradecahydro-6a,9-methanocyclohepta[a]naphthalene-4-carboxylic Acid] | > 10 | > 10 | > 10 | > 10 | > 10
COC(=O)[C@]1(C)CCC[C@@]2(C)C3CC[C@@]4(C)C[C@]3(CC[C@H]12)[C@H](CN[C@H](C)c1ccc(F)cc1)[C@H]4O (stereo partly drawn) [Compound 23, (4R,4aS,6aS,7R,8R,9S,11bS)-Methyl 7-((((R)-1-(4-fluorophenyl)ethyl)amino)methyl)-8-hydroxy-4,9,11b-trimethyltetradecahydro-6a,9-methanocyclohepta[a]naphthalene-4-carboxylate] | 5.08 | 4.24 | 4.16 | 3.16 | 1.79
C=CC(=O)OCCCCOC(=O)[C@]1(C)CCC[C@@]2(C)C3CC[C@@]4(C)C[C@]3(CC[C@H]12)[C@H](CN(Cc1ccc(F)cc1)C(=O)OC(C)(C)C)[C@H]4O (stereo partly drawn) [Compound 11, (4R,4aS,6aS,7R,8R,9S,11bS)-4-(Acryloyloxy)butyl 7-(((tert-butoxycarbonyl)(4-fluorobenzyl)amino)methyl)-8-hydroxy-4,9,11b-trimethyltetradecahydro-6a,9-methanocyclohepta[a]naphthalene-4-carboxylate] | > 10 | > 10 | > 10 | > 10 | > 10
C[C@@H](NC[C@@H]1[C@@H](O)[C@@]2(C)CCC3[C@]1(CC[C@@H]1[C@](C)(C(=O)OCc4ccccc4)CCC[C@@]31C)C2)c1ccc(F)cc1 (stereo partly drawn) [Compound 15, (4R,4aS,6aS,7R,8R,9S,11bS)-Benzyl 7-((((R)-1-(4-fluorophenyl)ethyl)amino)methyl)-8-hydroxy-4,9,11b-trimethyltetradecahydro-6a,9-methanocyclohepta[a]naphthalene-4-carboxylate] | 4.28 | 3.91 | 4.18 | 4.2 | 4.8
C[C@H](NC[C@@H]1[C@@H](O)[C@@]2(C)CCC3[C@]1(CC[C@@H]1[C@](C)(C(=O)OCc4ccccc4)CCC[C@@]31C)C2)c1cccc2ccccc12 (stereo partly drawn) [Compound 19, (4R,4aS,6aS,7R,8R,9S,11bS)-Benzyl 8-hydroxy-4,9,11b-trimethyl-7-((((S)-1-(naphthalen-1-yl)ethyl)amino)methyl)tetradecahydro-6a,9-methanocyclohepta[a]naphthalene-4-carboxylate] | 7.29 | 4.41 | 6.08 | 5.59 | 5.44
CC[C@H](NC[C@@H]1[C@@H](O)[C@@]2(C)CCC3[C@]1(CC[C@@H]1[C@](C)(C(=O)OC)CCC[C@@]31C)C2)c1ccccc1 (stereo partly drawn) [Compound 25, (4R,4aS,6aS,7R,8R,9S,11bS)-Methyl 8-hydroxy-4,9,11b-trimethyl-7-((((S)-1-phenylpropyl)amino)methyl)tetradecahydro-6a,9-methanocyclohepta[a]naphthalene-4-carboxylate] | 6.53 | 4.83 | 4.43 | 4.17 | 3.98

Source: article PMC10893060, “Synthesis and Study of the Structure–Activity Relationship of Antiproliferative N-Substituted Isosteviol-Based 1,3-Aminoalcohols” (Pharmaceuticals, 2024)
